Earlier results in US5721209A, “Iron chelator and inhibitor of iron-mediated oxidant injury” (The Regents of the University of California, priority 1995, dated 1998).
Read-outs that look alike come from different tables or passages of the source.

How the values were obtained:
ischemic myocardium = conditions: for prevention of reperfusion injury / myocardial infarct size: administered prior to reperfusion / prior to occurrence of the myocardial infarct
neuroblastoma cells = conditions: removal of iron; growth of normal cells not similarly affected
[1] = according to Macham
[2] = prior known iron chelator

CC(=O)N(O)CCCCCNC(=O)CCC(=O)N(O)CCCCCNC(=O)CCC(=O)N(O)CCCCCN [deferoxamine]
prevention of reperfusion injury (ischemic myocardium; administered at or after the onset of reperfusion): ineffective
prevention of reperfusion injury / myocardial infarct size (ischemic myocardium): prevents injury and reduces myocardial infarct size
prevention of reperfusion injury / myocardial infarct size (ischemic myocardium; listed as Desferoxamine): effective
growth of neuroblastoma cells (neuroblastoma cells): negatively affected

mycobactin
solubility [1]: water insoluble

O=C(O)CN(CCN(CC(=O)O)CC(=O)O)CC(=O)O [EDTA]
prevention of (.cndot.OH) production by the Fenton reaction [2]: do not prevent (.cndot.OH) production by the Fenton reaction
